The source of these data is publication PMC7560015, “Indoline-6-Sulfonamide Inhibitors of the Bacterial Enzyme DapE” (Antibiotics, 2020).

The melting point is the temperature of the solid-liquid transition. One may read the inhibition as the share of the control response that was lost under treatment. For orientation: IC50 means the midpoint of a concentration-inhibition curve.

Like-named read-outs stand apart in the source and are kept apart here.

The nature of data set [1]: solubility at assay concentration. Conditions: at 200 μM; insol. = insoluble. It counts as physicochemical. An excerpt:
The compounds synthesized along with their DapE inhibitory potencies measured using the N-Me-SDAP substrate are summarized in Table 1. We kept the N-acetyl group as well as the 5-halogen moiety constant in this first series while varying the sulfonamide N-substituent. […] Several derivatives had poor solubility, limiting the ability to test inhibition at higher concentrations.

The next data set deals with T1, HiDapE (Haemophilus influenzae, UniProt P44514).
T1 construct: His6 (cleaved yes); made in house
T1 sequence (P44514 whole entry): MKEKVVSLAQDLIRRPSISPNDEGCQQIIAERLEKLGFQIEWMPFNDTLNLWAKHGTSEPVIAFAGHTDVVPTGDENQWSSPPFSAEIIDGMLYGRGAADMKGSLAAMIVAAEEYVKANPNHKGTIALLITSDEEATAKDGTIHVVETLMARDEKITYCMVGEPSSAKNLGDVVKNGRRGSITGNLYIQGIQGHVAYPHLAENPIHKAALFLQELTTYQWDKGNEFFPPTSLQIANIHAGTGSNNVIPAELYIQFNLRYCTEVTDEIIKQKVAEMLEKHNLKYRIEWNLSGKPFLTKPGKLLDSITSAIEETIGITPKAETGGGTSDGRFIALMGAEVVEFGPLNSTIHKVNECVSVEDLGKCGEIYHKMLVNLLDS
The data set can be described thus: ninhydrin-based DapE inhibition assay (N6-methyl-L,L-SDAP substrate). As to conditions: for IC50: from three or four % inhibition points, N-Me-SDAP substrate. It counts as biochemical. An excerpt:
To conveniently measure the inhibitory potency of test compounds against DapE, we recently developed a ninhydrin-based assay employing the unnatural but well-tolerated substrate N^6-methyl-L,L-SDAP (1b). Enzymatic cleavage of 1b affords primary amine product 3b (Figure 1), which can be quantified spectrophotometrically following treatment with ninhydrin. Importantly, this assay avoids the significant background signal that would be produced by the reaction of the primary amine in native substrate 1a with ninhydrin. […]
DapE inhibition was measured according to the method previously described. In brief, the enzymatic activity of DapE was measured in triplicate at 570 nm by the Ruhemann’s purple complex formed through the reaction of the exposed primary amine and ninhydrin. To 175 µL of 50 mM HEPES (4-(2-hydroxyethyl)-1-piperazineethanesulfonic acid) buffer at pH 7.5 with 5 µL of 1µM DapE stock solution at 30 °C, 20 µL of 10 mM monomethyl SDAP ((2S,6S)-2-(3-carboxypropanamido)-6-(methylamino)heptanedioic acid) TFA salt was added. The reaction was allowed to proceed for 10 min and quenched by heating at 100 °C for 1 min and subsequently cooling on ice for 1 min. To the cooled reaction, 2% ninhydrin reagent in 100% DMSO (final volume 300 µL) was added and subsequently heated to 80 °C for 15 min. This was quenched by placing in ice water for 2 min, and the absorbance of an 80 µL aliquot was read at 570 nm via a microplate reader. These reactions were set as 100% standard enzyme activity of DapE.

Another data set has as its target DapE (Haemophilus influenzae, UniProt P44514). The data set can be described thus: high-throughput screen of ~33,000 compounds for DapE inhibitors. Conditions: read-out: % inhibition of DapE in high-throughput screen. The class given is biochemical. An excerpt: We were pleased that these two indoline hit structures provided mutual confirmation of one another. Furthermore, indolines are a privileged scaffold in medicinal chemistry, as there are several examples of indoline-containing drugs approved for a variety of treatments: advanced or transitional cell carcinoma of the urothelial tract (vinflunine), glaucoma and severe anticholinergic toxicity (physostigmine), and schizophrenia in adults (lumateperone), or are under investigation, as for benign prostatic hyperplasia (BPH). Furthermore, sulfonamides are pervasive in agrochemicals and in pharmaceuticals across therapeutic areas, and primary sulfonamides have recently been leveraged as versatile intermediates.

For data set [2], the system named is DapE from Haemophilus influenza (HiDapE). Conditions: competitive inhibitor of HiDapE; cited from earlier work.

Chain of DapE (P44514 whole entry): as above

`CCCN(CCC)S(=O)(=O)c1cc2c(cc1Br)CCN2C(C)=O` [9l, 1-Acetyl-5-Bromo-N,N-Dipropylindoline-6-Sulfonamide] showed a melting point of 118 to 120 °C. Also, in data set [1], the “solubility in the DapE assay” value is on record as “insol”. At HiDapE, the “DapE inhibitory potency in words” value was “significantly less potent” and the inhibition at 20 µM was found to be 5%.

Consider `COC(=O)CNS(=O)(=O)c1cc2c(cc1Br)CCN2C(C)=O` [9e, 1-Acetyl-5-Bromoindolin-6-(Sulfonyl Glycine Methyl Ester)], for which the melting point was in the range of 179 to 182 °C. Also, at HiDapE, the “DapE inhibitory potency in words” value was “nearly inactive” and the inhibition at 200 µM turned out to be 17%.

In the case of `CC(=O)N1CCc2cc(Br)c(S(=O)(=O)NC(C)(C)C)cc21` [9d, 1-Acetyl-5-Bromo-N-(Tert-Butyl)Indoline-6-Sulfonamide], testing at 100 µM at HiDapE gave an inhibition of 39%.

Compound `CC(=O)N1CCc2cc(Br)c(S(=O)(=O)NC3CCCCC3)cc21` [9b, 1-Acetyl-5-Bromo-N-Cyclohexylindoline-6-Sulfonamide] yielded a melting point of 226 to 228 °C. This compound had an IC50 against HiDapE of 162 µM.

`CCN(CC)S(=O)(=O)c1cc2c(cc1Br)CCN2C(C)=O` [9n, 1-Acetyl-5-Bromo-N,N-Diethylindoline-6-Sulfonamide] returned a melting point of 195 to 196 °C. The IC50 against HiDapE was 99 µM.

`COC(=O)[C@H](Cc1ccccc1)NS(=O)(=O)c1cc2c(cc1Br)CCN2C(C)=O` [9h, Methyl ((1-Acetyl-5-Bromoindolin-6-yl)Sulfonyl)-L-Phenylalaninate] had an inhibition at 200 µM on HiDapE of 61%.

For the compound `COCCN(CCOC)S(=O)(=O)c1cc2c(cc1Br)CCN2C(C)=O` [9m, 1-Acetyl-5-Bromo-N,N-bis(2-Methoxyethyl)Indoline-6-Sulfonamide], the melting point was in the range of 110 to 111 °C. At HiDapE, the “DapE inhibitory potency in words” value is recorded as “significantly less potent” and 100 µM produced 26% inhibition.

Consider `CC(=O)N1CCc2cc(Br)c(S(=O)(=O)N3CC(C)CC(C)C3)cc21` (stereo not shown) [compound 5], for which, at DapE, the inhibition at 12 µM is over 20%.

Regarding `C[C@H](CS)C(=O)N1CCC[C@H]1C(=O)O` [captopril], in data set [2], the IC50 was 3.3 µM.

As for `CC(=O)N1CCc2cc(Cl)c(S(=O)(=O)N3CCCC3)cc21` [10d, 1-(5-Chloro-6-(Pyrrolidin-1-Ylsulfonyl)Indolin-1-yl)ethan-1-One], inhibition against HiDapE was half-maximal at 172 µM (IC50).

For the compound `CC(=O)N1CCc2cc(Cl)c(S(=O)(=O)NC3CCCCC3)cc21` [10b, 1-Acetyl-5-Chloro-N-Cyclohexylindoline-6-Sulfonamide], the melting point lay within 230 to 230.5 °C. For the same compound, the inhibition at 200 µM against HiDapE turned out to be 58%.

The compound `CC(=O)N1CCc2cc(Br)c(S(=O)(=O)N3CCCCC3)cc21` [9i, 1-Acetyl-5-Bromo-6-(Piperidin-1-Sulfonyl) Indoline] gave a melting point of 212 to 214 °C. The compound further gave an IC50 against HiDapE of 133 µM.

The compound `CC(=O)N1CCc2cc(Br)c(S(=O)(=O)NCCC(C)C)cc21` [compound 4, 1-Acetyl-5-Bromo-N-Isopentylindoline-6-Sulfonamide] yielded a melting point of 190 to 191 °C. The inhibition at 12 µM on DapE (at 12 μM, arbitrary hit cutoff) was over 20%. In addition, at HiDapE (at 200 μM, single concentration, read-out: % Inhibition), the inhibition at 200 µM turned out to be 42%. The compound also had an IC50 against HiDapE of over 200 µM.

`CC(=O)N1CCc2cc(Cl)c(S(=O)(=O)N3CCCCC3)cc21` [10c, 1-(5-Chloro-6-(Piperidin-1-Ylsulfonyl)Indolin-1-yl)Ethan-1-One] showed a melting point of 199.7 to 201.4 °C. The “fold more potent than corresponding 5-bromo derivative” value at HiDapE (10c relative to 9i) is ~ 3 ×. The compound further returned an IC50 against HiDapE of 44 µM.

For `CC(=O)N1CCc2cc(Br)c(S(=O)(=O)N3CCCC3)cc21` [9j, 1-Acetyl-5-Bromo-6-(Pyrrolidin-1-Sulfonyl) Indoline], the melting point was 238 to 240 °C. This compound yielded an IC50 at HiDapE of 97 µM.

On to `COC(=O)[C@@H](NS(=O)(=O)c1cc2c(cc1Br)CCN2C(C)=O)C(C)C` [9g, Methyl ((1-Acetyl-5-Bromoindolin-6-yl)Sulfonyl)Valinate], for which the melting point lay in the range of 190.9 to 191.7 °C. For the same compound, on HiDapE, half-maximal inhibition (IC50) was put at 82 µM.

`CC(=O)N1CCc2cc(Br)c(S(=O)(=O)NCC(C)C)cc21` [9a, 1-Acetyl-5-Bromo-N-Isobutylindoline-6-Sulfonamide] registered an inhibition at 200 µM against HiDapE of 20%.

Regarding `CCCN(CCC)S(=O)(=O)c1cc2c(cc1Cl)CCN2C(C)=O` [10e, 1-Acetyl-5-Chloro-N,N-Dipropylindoline-6-Sulfonamide], the IC50 on HiDapE amounted to 88 µM.

For the compound `CC(=O)N1CCc2cc(Cl)c(S(=O)(=O)NCCC(C)C)cc21` [10a, 1-Acetyl-5-Chloro-N-Isopentylindoline-6-Sulfonamide], the “fold more potent than corresponding 5-bromo derivative” value on HiDapE (10a relative to 4) was ~ 5 ×. Besides, at HiDapE, the IC50 was 54 µM.

For `COCCN(CCOC)S(=O)(=O)c1cc2c(cc1Cl)CCN2C(C)=O` [10f, 1-Acetyl-5-Chloro-N,N-bis(2-Methoxyethyl)Indoline-6-Sulfonamide], the melting point lay within 93.2 to 94.4 °C. At HiDapE, the IC50 is over 200 µM.

As to `CC(=O)N1CCc2cc(Br)c(S(=O)(=O)N3CCc4ccccc43)cc21` [9k, 1-Acetyl-5-Bromo-6-(Indolin-1-Sulfonyl) Indoline], the melting point lay within 215 to 218 °C. The compound further had a concentration for half-maximal inhibition (IC50) on HiDapE of 86 µM.

In the case of `CC(=O)N1CCc2cc(Br)c(S(=O)(=O)NCc3ccccc3)cc21` [9c, 1-Acetyl-N-Benzyl-5-Bromoindoline-6-Sulfonamide], the melting point was 205 to 208 °C. Also, at HiDapE, the inhibition at 200 µM is 56%.

In turn, `COC(=O)CCNS(=O)(=O)c1cc2c(cc1Br)CCN2C(C)=O` [9f, Methyl 3-((1-Acetyl-5-Bromoindoline)-6-Sulfonamido)Propanoate] registered a melting point of 190 to 193 °C. The compound further gave an IC50 on HiDapE of 118 µM.
